Source: patent US20200240980A1, “METHOD FOR DELAYED RECTIFIER CURRENT ENHANCEMENT, CHARACTERIZATION, AND ANALYSIS IN HUMAN INDUCED PLURIPOTENT STEM CELLS” (The Research Foundation for The State University of New York, priority 2017, published 2020)

Test system: IKr expression in human iPSCDCMs
Assay: IKr expression in human iPSCDCMs after 48 hour treatment with Endo-Porter transfected morpholino AS oligonucleotide, whole-cell patch clamp
Format: cell-based
Excerpt: Our approach is based on studies showing that morpholino anti-sense (AS) oligonucleotides increased HERG expression in HEK293 cells. We examined the ability of these endoporter (Endo-Porter delivery system) transfected morpholino AS oligonucleotides to increase IKr expression in human iPSCDCMs. The morpholino AS oligonucleotide Endo-Porter, is a proprietary weak-base amphiphilic peptide that was designed to deliver non-ionic substances into the cytosol/nuclear compartment of cells by an endocytosis-mediated process. Following a 48 hour treatment with morpholino AS oligonucleotide (alpha2NS 05Z) significant increase (p<0.05) in IKr expression was observed compared to naïve/vehicle and an inverse morpholino AS oligonucleotide control (MPL ZN9DSZ INV) (Morpholino AS oligonucleotide (n=28): 0.29±0.04 pA/pF, INV control (n=7): 0.11±0.08 pA/pF). […] In naïve/vehicle treated cells we observed a near equal frequency of cells expressing current densities <0.2 pA/pF and >0.2 pA/pF. However, following morpholino AS oligonucleotide treatment cells expressing current densities >0.2 pA/pF increased to 71% p<0.05 as shown in FIG. 4.

## 5′-CAGAACACAGTAGTGAATCAAAACC-3′ (all phosphorodiamidate morpholino (PMO)) [alpha2NS 05Z, morpholino anti-sense oligonucleotide specific for a polyadenylation signal in Intron 9 of the KCNH2 gene]
hiPSCDCMs after morpholino AS oligonucleotide treatment, p<0.05, near equal frequency in naïve/vehicle cells, FIG. 4
  cells expressing IKr current densities >0.2 pA/pF: 71%
hiPSCDCMs, 48 hour treatment, mean ± spread, n=28 (morpholino AS), n=7 (INV control)
  IKr current density: 0.29±0.04 pA/pF
hiPSCDCMs, p<0.05, FIG. 4
  distribution of IKr current densities ≤0.2 pA/pF or >0.2 pA/pF versus naïve/vehicle cells: significant shift
